Patent US6696494B2, “α-hydroxyarylbutanamine inhibitors of aspartyl protease” (Enanta Pharmaceuticals, Inc., priority 2001, dated 2004)

Target: HIV-1 protease (Human immunodeficiency virus type 1 group M subtype B, UniProt P04585)
Assay: Inhibition of microbial expressed viral protease (HIV-1 protease), method of Toth and Marshall
Type: biochemical
Method: Biological Assay for Inhibition of Microbial Expressed Viral Protease
The inhibition constants against HIV-1 protease were measured using the method described by M. V. Toth and G. R. Marshall, Int. J. Peptide protein Res., 1990, 544. The method described M. W. Pennington et al., Peptides 1990, Gimet, E. and D. Andrew, Eds., Escom; Leiden, Netherlands (1990) may also be used. The potency is measured as IC50in μM. The person of skill would accept these tests as predictive of the compounds' utility in vivo to treat HIV infected patients.

## CC(C)(C)NC(=O)c1ccccc1CC[C@@H](O)[C@H](Cc1ccccc1)NC(=O)c1cc(=O)c2ccccc2o1 [Example 000974]
  IC50: > 10000 nM

## Cc1cccc(C)c1OCC(=O)N[C@@H](Cc1ccccc1)[C@H](O)CCc1ccccc1C(=O)NC(C)(C)C [Example 000987]
  IC50: < 100 nM

## CC(C)(C)NC(=O)c1ccccc1CC[C@@H](O)[C@H](Cc1ccccc1)NC(=O)N(c1ccccc1)c1ccccc1 [Example 001006]
  IC50: 100 to 10000 nM

## CC(C)(C)NC(=O)c1ccccc1CC[C@@H](O)[C@H](Cc1ccccc1)NC(=O)N1CCOCC1 [Example 001008]
  IC50: 100 to 10000 nM

## CC(C)(C)NC(=O)c1ccccc1CC[C@@H](O)[C@H](Cc1ccccc1)NS(=O)(=O)c1cccc(Cl)c1Cl [Example 001010]
  IC50: > 10000 nM

## CC(C)(C)NC(=O)c1ccccc1CC[C@@H](O)[C@H](Cc1ccccc1)NS(=O)(=O)c1cccc2nonc12 [Example 001012]
  IC50: 100 to 10000 nM

## Cc1ccccc1S(=O)(=O)NC(=O)N[C@@H](Cc1ccccc1)[C@H](O)CCc1ccccc1C(=O)NC(C)(C)C [Example 001014]
  IC50: 100 to 10000 nM

## CC(C)(C)NC(=O)c1ccccc1CC[C@@H](O)[C@H](Cc1ccccc1)NC(=S)Oc1ccc(F)cc1 [Example 001017]
  IC50: > 10000 nM

## CC(C)(C)NC(=O)c1ccccc1CC[C@@H](O)[C@H](Cc1ccccc1)NC(=O)c1ccccc1Nc1ccccc1 [Example 001020]
  IC50: > 10000 nM

## COc1ccc(C(=O)c2ccccc2C(=O)N[C@@H](Cc2ccccc2)[C@H](O)CCc2ccccc2C(=O)NC(C)(C)C)c(O)c1 [Example 001034]
  IC50: 100 to 10000 nM

## CC(C)(C)NC(=O)c1ccccc1CC[C@@H](O)[C@H](Cc1ccccc1)NC(=O)c1ccc(Br)c(C(=O)O)c1 [Example 001035]
  IC50: 100 to 10000 nM

## CC(C)(C)NC(=O)c1ccccc1CC[C@@H](O)[C@H](Cc1ccccc1)NC(=O)c1cc(C(F)(F)F)ccc1Cl [Example 001036]
  IC50: > 10000 nM

## CC(C)(C)NC(=O)c1ccccc1CC[C@@H](O)[C@H](Cc1ccccc1)NC(=O)c1ccccc1C(=O)c1ccccc1N [Example 001040]
  IC50: 100 to 10000 nM

## CC(C)(C)NC(=O)c1ccccc1CC[C@@H](O)[C@H](Cc1ccccc1)NC(=O)c1ccccc1C(F)(F)F [Example 001042]
  IC50: 100 to 10000 nM

## CC(C)(C)NC(=O)c1ccccc1CC[C@@H](O)[C@H](Cc1ccccc1)NC(=O)c1ccc(C(=O)c2ccccc2)cc1 [Example 001047]
  IC50: 100 to 10000 nM

## CC(C)(C)OC(=O)N[C@@H](Cc1ccccc1)[C@H](O)CCc1ccccc1C(=O)N[C@H](CO)c1ccccc1 [Example 001054]
  IC50: 100 to 10000 nM

## Cc1nocc1C(=O)N[C@@H](Cc1ccccc1)[C@H](O)CCc1ccccc1C(=O)NC(C)(C)C [Example 001154]
  IC50: 100 to 10000 nM

## CC(C)(C)NC(=O)c1ccccc1CC[C@@H](O)[C@H](Cc1ccccc1)NC(=O)COc1cc(F)cc(F)c1 [Example 001182]
  IC50: > 10000 nM

## Cc1cccc(OCC(=O)N[C@@H](Cc2ccccc2)[C@H](O)CCc2ccccc2C(=O)NC(C)(C)C)c1 [Example 001185]
  IC50: 100 to 10000 nM

## Cc1ccc(OCC(=O)N[C@@H](Cc2ccccc2)[C@H](O)CCc2ccccc2C(=O)NC(C)(C)C)cc1 [Example 001186]
  IC50: 100 to 10000 nM

## CC(C)(C)NC(=O)c1ccccc1CC[C@@H](O)[C@H](Cc1ccccc1)NC(=O)CSc1ccccc1 [Example 001190]
  IC50: 100 to 10000 nM

## CC(C)(C)NC(=O)c1ccccc1CC[C@@H](O)[C@H](Cc1ccccc1)NC(=O)CNc1ccccc1 [Example 001192]
  IC50: 100 to 10000 nM

## Cc1ccc(C)c(OCC(=O)N[C@@H](Cc2ccccc2)[C@H](O)CCc2ccccc2C(=O)NC(C)(C)C)c1C [Example 001201]
  IC50: < 100 nM

## CC(C)(C)NC(=O)c1ccccc1CC[C@@H](O)[C@H](Cc1ccccc1)NC(=O)COc1c(Cl)cccc1Cl [Example 001203]
  IC50: 100 to 10000 nM

## CC(C)(C)NC(=O)c1ccccc1CC[C@@H](O)[C@H](Cc1ccccc1)NC(=O)COc1ccccc1C(F)(F)F [Example 001204]
  IC50: 100 to 10000 nM

## C=CCc1cccc(C)c1OCC(=O)N[C@@H](Cc1ccccc1)[C@H](O)CCc1ccccc1C(=O)NC(C)(C)C [Example 001206]
  IC50: 100 to 10000 nM

## COc1cccc(OC)c1OCC(=O)N[C@@H](Cc1ccccc1)[C@H](O)CCc1ccccc1C(=O)NC(C)(C)C [Example 001210]
  IC50: 100 to 10000 nM

## Cc1cc([N+](=O)[O-])cc(C)c1OCC(=O)N[C@@H](Cc1ccccc1)[C@H](O)CCc1ccccc1C(=O)NC(C)(C)C [Example 001211]
  IC50: 100 to 10000 nM

## COc1cccc(C)c1OCC(=O)N[C@@H](Cc1ccccc1)[C@H](O)CCc1ccccc1C(=O)NC(C)(C)C [Example 001213]
  IC50: < 100 nM

## CC(C)(C)NC(=O)c1ccccc1CC[C@@H](O)[C@H](Cc1ccccc1)NC(=O)COc1c(F)cccc1F [Example 001214]
  IC50: < 100 nM

## Cc1cccc(Cl)c1OCC(=O)N[C@@H](Cc1ccccc1)[C@H](O)CCc1ccccc1C(=O)NC(C)(C)C [Example 001215]
  IC50: < 100 nM

## Cc1cc(Br)cc(Cl)c1OCC(=O)N[C@@H](Cc1ccccc1)[C@H](O)CCc1ccccc1C(=O)NC(C)(C)C [Example 001216]
  IC50: 100 to 10000 nM

## COc1cccc(F)c1OCC(=O)N[C@@H](Cc1ccccc1)[C@H](O)CCc1ccccc1C(=O)NC(C)(C)C [Example 001217]
  IC50: 100 to 10000 nM

## Cc1cc(Br)cc(C)c1OCC(=O)N[C@@H](Cc1ccccc1)[C@H](O)CCc1ccccc1C(=O)NC(C)(C)C [Example 001218]
  IC50: < 100 nM

## CC(C)CC(O)C(=O)NC(Cc1ccccc1)C(O)CCc1ccccc1C(=O)NC(C)(C)C (stereo not drawn) [Example 001219]
  IC50: 100 to 10000 nM

## CC(C)(C)NC(=O)c1ccccc1CC[C@@H](O)[C@H](Cc1ccccc1)NC(=O)COc1c(Cl)cc(Cl)cc1Cl [Example 001224]
  IC50: < 100 nM

## Cc1cc(Br)c(OCC(=O)N[C@@H](Cc2ccccc2)[C@H](O)CCc2ccccc2C(=O)NC(C)(C)C)c(Br)c1 [Example 001225]
  IC50: 100 to 10000 nM

## CC(C)(C)NC(=O)c1ccccc1CC[C@@H](O)[C@H](Cc1ccccc1)NC(=O)COc1c(Br)cc(F)cc1Br [Example 001226]
  IC50: 100 to 10000 nM

## CC(C)(C)NC(=O)c1ccccc1CC[C@@H](O)[C@H](Cc1ccccc1)NC(=O)COc1ccc(F)c(F)c1F [Example 001227]
  IC50: 100 to 10000 nM

## CC(C)(C)NC(=O)c1ccccc1CC[C@@H](O)[C@H](Cc1ccccc1)NC(=O)COC1CCCCC1 [Example 001228]
  IC50: 100 to 10000 nM

## CC1CCCCC1OCC(=O)NC(Cc1ccccc1)C(O)CCc1ccccc1C(=O)NC(C)(C)C (stereo not drawn) [Example 001229]
  IC50: 100 to 10000 nM

## CC1CCCC(C)C1OCC(=O)NC(Cc1ccccc1)C(O)CCc1ccccc1C(=O)NC(C)(C)C (stereo not drawn) [Example 001230]
  IC50: 100 to 10000 nM

## CCC(CC)OCC(=O)N[C@@H](Cc1ccccc1)[C@H](O)CCc1ccccc1C(=O)NC(C)(C)C [Example 001231]
  IC50: 100 to 10000 nM

## Cc1ccc(CC[C@@H](O)[C@H](Cc2ccccc2)NC(=O)COc2c(C)cccc2C)c(C(=O)NC(C)(C)C)c1 [Example 001237]
  IC50: < 100 nM

## Cc1cccc(C)c1OCC(=O)N[C@@H](Cc1ccccc1)[C@H](O)CCc1cccc(F)c1C(=O)NC(C)(C)C [Example 001239]
  IC50: < 100 nM

## Cc1c(O)cccc1OCC(=O)N[C@@H](Cc1ccccc1)[C@H](O)CCc1ccccc1C(=O)NC(C)(C)C [Example 001246]
  IC50: < 100 nM

## Cc1cccc(C)c1OCC(=O)N[C@@H](Cc1ccccc1)[C@H](O)CCc1cccc(C)c1C(=O)NC(C)(C)C [Example 001249]
  IC50: < 100 nM

## Cc1cc(CO)cc(C)c1OCC(=O)N[C@@H](Cc1ccccc1)[C@H](O)CCc1ccccc1C(=O)NC(C)(C)C [Example 001267]
  IC50: < 100 nM

## CC(C)(C)NC(=O)c1ccccc1CC[C@@H](O)[C@H](Cc1ccccc1)NC(=O)COc1cccnc1Cl [Example 001268]
  IC50: 100 to 10000 nM

## Cc1cc(C(=O)N[C@@H](Cc2ccccc2)[C@H](O)CCc2ccccc2C(=O)NC(C)(C)C)cc(C)c1OCC(=O)O [Example 001278]
  IC50: 100 to 10000 nM

## Cc1cc(C(=O)O)ccc1OCC(=O)N[C@@H](Cc1ccccc1)[C@H](O)CCc1ccccc1C(=O)NC(C)(C)C [Example 001279]
  IC50: 100 to 10000 nM
